Consider 35 molecules from patent publication US20090005390A1, “NOVEL QUINUCLIDINE DERIVATIVES AND THEIR USE” (N[…]/S, priority 2002, published 2009).

The target in series [1] is T1, α7-subtype of nicotinic receptors (Rattus norvegicus, UniProt Q05941).
T1 construct: Cerebral cortices from male Wistar rats (150-250 g) are homogenised; from tissue; host or cells: rat cerebral cortex membrane homogenate
The experiment in a line: In vitro inhibition of 3H-α-bungarotoxine binding in rat brain. To be noted: rat cerebral cortex homogenate; 3H-α-bungarotoxine 2 nM; 2 hours at 37° C.

Molecules are shown by their SMILES.

T1 sequence (Q05941 23-502): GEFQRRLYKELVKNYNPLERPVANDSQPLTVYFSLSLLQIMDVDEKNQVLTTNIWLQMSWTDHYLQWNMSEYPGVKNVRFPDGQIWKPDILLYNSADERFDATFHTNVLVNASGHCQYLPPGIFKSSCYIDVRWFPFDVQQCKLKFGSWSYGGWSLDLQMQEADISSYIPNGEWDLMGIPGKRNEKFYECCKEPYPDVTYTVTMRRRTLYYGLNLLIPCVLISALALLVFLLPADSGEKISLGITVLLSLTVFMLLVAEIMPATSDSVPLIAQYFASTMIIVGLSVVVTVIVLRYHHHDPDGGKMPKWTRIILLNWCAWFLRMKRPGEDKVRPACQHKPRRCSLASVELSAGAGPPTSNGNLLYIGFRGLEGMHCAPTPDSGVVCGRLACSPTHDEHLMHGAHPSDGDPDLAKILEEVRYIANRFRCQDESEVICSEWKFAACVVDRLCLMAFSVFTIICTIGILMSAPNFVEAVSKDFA

`O=C(O)/C=C/C(=O)O.c1ccc2cc(OC3CN4CCC3CC4)ccc2c1` (racemic): the melting point – broadly, the temperature, or range, at which the solid turns liquid – was 140.9 to 141.6 °C.

For `O=C(O)/C=C/C(=O)O.c1ccc(-c2ccccc2OC2CN3CCC2CC3)cc1` (racemic), the melting point was found to be 125.4 °C.

`O=C(O)/C=C/C(=O)O.c1cnc2ccc(OC3CN4CCC3CC4)cc2c1` (racemic) gave a melting point of 146 to 147 °C.

`O=C(O)/C=C/C(=O)O.c1cc2c(cc1OC1CN3CCC1CC3)CCC2` (racemic) showed a melting point of 149.3 to 150.5 °C.

The molecule `O=C(O)/C=C/C(=O)O.c1cc2c(cc1OC1CN3CCC1CC3)CCCC2` (racemic) had a melting point of 109.7 to 111.3 °C.

With `O=C(O)/C=C/C(=O)O.c1ccc2nc(OC3CN4CCC3CC4)ccc2c1` (racemic), the melting point lay within 160 to 160.5 °C.

`Brc1cnc(OC2CN3CCC2CC3)s1.O=C(O)/C=C/C(=O)O` (racemic) gave a melting point of 157.8 to 162.1 °C.

Regarding `O=C(O)/C=C/C(=O)O.c1ccc2c(OC3CN4CCC3CC4)nsc2c1` (racemic), the melting point lay in the range of 172.3 to 173.6 °C.

As to `Brc1ccc(OC2CN3CCC2CC3)nn1.O=C(O)/C=C/C(=O)O` (racemic), the melting point is 152.8 °C.

`Clc1ccc(OC2CN3CCC2CC3)nn1.O=C(O)/C=C/C(=O)O` (racemic) had a melting point of 164 to 164.5 °C.

`COc1nc2ccccc2nc1OC1CN2CCC1CC2.O=C(O)/C=C/C(=O)O` (racemic): the melting point lay in the range of 168.5 to 170 °C.

As for `Clc1nc2ccccc2nc1OC1CN2CCC1CC2.O=C(O)/C=C/C(=O)O` (racemic), the melting point fell in the range of 120.8 to 122.1 °C.

In turn, `Cn1c(OC2CN3CCC2CC3)nc2ccccc21.O=C(O)/C=C/C(=O)O` (racemic) displayed a melting point of 184.9 to 185.9 °C.

For `O=C(O)/C=C/C(=O)O.c1ccc2oc(OC3CN4CCC3CC4)nc2c1` (racemic), the melting point lay in the range of 187.2 to 188.8 °C.

In turn, `O=C(O)/C=C/C(=O)O.c1ccc2nc(OC3CN4CCC3CC4)cnc2c1` (racemic) gave a melting point of 127.7 to 128.5 °C.

The molecule `O=C(O)/C=C/C(=O)O.c1ccc(-c2ccc(OC3CN4CCC3CC4)nn2)cc1` (racemic) gave a melting point of 168.5 to 172 °C.

In turn, `O=C(O)/C=C/C(=O)O.c1ccc(-c2nnc(OC3CN4CCC3CC4)s2)cc1` (racemic) had a melting point of 168.5 to 172 °C.

Molecule `C.I.c1ccc2nc(OC3CN4CCC3CC4)cnc2c1` (racemic) registered a melting point of 229 to 230 °C.

With `C.I.c1ccc2nc(OC3CN4CCC3CC4)ccc2c1` (racemic), the melting point is 156.6 to 175.2 °C.

Molecule `C.I.c1ccc2c(OC3CN4CCC3CC4)nsc2c1` (racemic) registered a melting point of 180.1 to 186.4 °C.

`O=C(O)/C=C/C(=O)O.c1cc(-c2ccc(OC3CN4CCC3CC4)nn2)co1` (racemic) gave a melting point of 224.8 to 225.4 °C.

With `O=C(O)/C=C/C(=O)O.c1cncc(-c2ccc(OC3CN4CCC3CC4)nn2)c1` (racemic), the melting point was in the range of 137.2 to 143.2 °C.

In turn, `Fc1ccc(-c2cnc(OC3CN4CCC3CC4)s2)c(F)c1.O=C(O)/C=C/C(=O)O` (racemic) gave a melting point of 84.3 to 86.3 °C.

`O=C(O)/C=C/C(=O)O.c1coc(-c2ccc(OC3CN4CCC3CC4)nn2)c1` (racemic) registered a melting point of 175.8 to 178.2 °C.

In turn, `O=C(O)/C=C/C(=O)O.c1ccc(-c2ccc(OC3CN4CCC3CC4)cc2)cc1` (racemic) [Compound A2, (±)-3-(4-Phenylphenyloxy)-1-aza-bicyclo[2.2.2]octane fumaric acid salt] showed a melting point of 173.5 to 185.1 °C. Also, the IC50 (usually the concentration that inhibits the measured activity by half) in series [1] came out at 160 nM.

Consider `Clc1ccc2nc(OC3CN4CCC3CC4)sc2c1.O=C(O)/C=C/C(=O)O` (racemic) [Compound B2, (±)-3-(6-Chloro-benzothiazol-2-yloxy)-1-aza-bicyclo[2.2.2]octane fumaric acid salt], for which the melting point was 203 to 205 °C. In series [1], this molecule showed an IC50 of 180 nM.

The molecule `O=C(O)/C=C/C(=O)O.c1ccc2sc(OC3CN4CCC3CC4)nc2c1` (racemic) [Compound B3, (±)-3-(Benzothiazol-2-yloxy)-1-aza-bicyclo[2.2.2]octane fumaric acid salt] had a melting point of 173.7 to 174.2 °C. In series [1], this molecule returned an IC50 of 170 nM.

As for `O=C(O)/C=C/C(=O)O.c1cc(-c2nnc(OC3CN4CCC3CC4)s2)cs1` (racemic) [Compound B17, (±)-3-[5-(3-Thienyl)-1,3,4-thiadiazol-2-yloxy]-1-aza-bicyclo[2.2.2]octane fumaric acid salt], the melting point lay in the range of 186 to 188 °C. This molecule had an IC50 in series [1] of 150 nM.

In the case of `O=C(O)/C=C/C(=O)O.c1ccc(-c2cnc(OC3CN4CCC3CC4)s2)cc1` (racemic) [Compound D1, (±)-3-(5-Phenyl-thiazol-2-yloxy)-1-aza-bicyclo[2.2.2]octane fumaric acid salt], the melting point fell in the range of 170.9 to 172.2 °C. The same molecule displayed an IC50 in series [1] of 52 nM.

Regarding `O=C(O)/C=C/C(=O)O.c1cc(-c2cnc(OC3CN4CCC3CC4)s2)cs1` (racemic) [Compound D3, (±)-3-[5-(3-Thienyl)-thiazol-2-yloxy]-1-aza-bicyclo[2.2.2]octane fumaric acid salt], the melting point is 68.5 to 74.3 °C. In addition, the IC50 in series [1] turned out to be 110 nM.

`O=C(O)/C=C/C(=O)O.c1csc(-c2cnc(OC3CN4CCC3CC4)s2)c1` (racemic) [Compound D4, (±)-3-[5-(2-Thienyl)-thiazol-2-yloxy]-1-aza-bicyclo[2.2.2]octane fumaric acid salt]: the melting point lay within 152.6 to 154.9 °C. In addition, in series [1], the IC50 is 20 nM.

In turn, `O=C(O)/C=C/C(=O)O.c1cc(-c2cnc(OC3CN4CCC3CC4)s2)co1` (racemic) [Compound D5, (±)-3-[5-(3-Furanyl)-thiazol-2-yloxy]-1-aza-bicyclo[2.2.2]octane fumaric acid salt] showed a melting point of 127.6 to 136.2 °C. For the same molecule, the IC50 in series [1] turned out to be 48 nM.

As for `O=C(O)/C=C/C(=O)O.c1cncc(-c2cnc(OC3CN4CCC3CC4)s2)c1` (racemic) [Compound D6, (±)-3-[5-(3-Pyridyl)-thiazol-2-yloxy]-1-aza-bicyclo[2.2.2]octane fumaric acid salt], the melting point fell in the range of 82.7 to 86 °C. In series [1], this molecule displayed an IC50 of 180 nM.

Turning to `O=C(O)/C=C/C(=O)O.c1cc(-c2ccc(OC3CN4CCC3CC4)nn2)cs1` (racemic) [Compound D7, (±)-3-[6-(3-Thienyl)-pyridazin-3-yloxy]-1-aza-bicyclo[2.2.2]octane fumaric acid salt], the melting point was found to be 197.9 °C. In series [1], the IC50 amounted to 130 nM.

For `O=C(O)/C=C/C(=O)O.c1csc(-c2ccc(OC3CN4CCC3CC4)nn2)c1` (racemic) [Compound D8, (±)-3-[6-(2-Thienyl)-pyridazin-3-yloxy]-1-aza-bicyclo[2.2.2]octane fumaric acid salt], the melting point was in the range of 180.3 to 191.1 °C. The molecule further had an IC50 in series [1] of 53 nM.
